The values that follow come from patent US12485123B2, “1H-pyrazolo[4,3-d]pyrimidine compounds as toll-like receptor 7 (TLR7) agonists” (BRISTOL-MYERS SQUIBB COMPANY, priority 2020, dated 2025).

For one assay, the target named is T1, human TLR7 (Homo sapiens, UniProt Q9NYK1).
T1 construct: host or cells: HEK-Blue TLR7 cells (engineered human embryonic kidney cells)
T1 sequence (Q9NYK1 27-1049): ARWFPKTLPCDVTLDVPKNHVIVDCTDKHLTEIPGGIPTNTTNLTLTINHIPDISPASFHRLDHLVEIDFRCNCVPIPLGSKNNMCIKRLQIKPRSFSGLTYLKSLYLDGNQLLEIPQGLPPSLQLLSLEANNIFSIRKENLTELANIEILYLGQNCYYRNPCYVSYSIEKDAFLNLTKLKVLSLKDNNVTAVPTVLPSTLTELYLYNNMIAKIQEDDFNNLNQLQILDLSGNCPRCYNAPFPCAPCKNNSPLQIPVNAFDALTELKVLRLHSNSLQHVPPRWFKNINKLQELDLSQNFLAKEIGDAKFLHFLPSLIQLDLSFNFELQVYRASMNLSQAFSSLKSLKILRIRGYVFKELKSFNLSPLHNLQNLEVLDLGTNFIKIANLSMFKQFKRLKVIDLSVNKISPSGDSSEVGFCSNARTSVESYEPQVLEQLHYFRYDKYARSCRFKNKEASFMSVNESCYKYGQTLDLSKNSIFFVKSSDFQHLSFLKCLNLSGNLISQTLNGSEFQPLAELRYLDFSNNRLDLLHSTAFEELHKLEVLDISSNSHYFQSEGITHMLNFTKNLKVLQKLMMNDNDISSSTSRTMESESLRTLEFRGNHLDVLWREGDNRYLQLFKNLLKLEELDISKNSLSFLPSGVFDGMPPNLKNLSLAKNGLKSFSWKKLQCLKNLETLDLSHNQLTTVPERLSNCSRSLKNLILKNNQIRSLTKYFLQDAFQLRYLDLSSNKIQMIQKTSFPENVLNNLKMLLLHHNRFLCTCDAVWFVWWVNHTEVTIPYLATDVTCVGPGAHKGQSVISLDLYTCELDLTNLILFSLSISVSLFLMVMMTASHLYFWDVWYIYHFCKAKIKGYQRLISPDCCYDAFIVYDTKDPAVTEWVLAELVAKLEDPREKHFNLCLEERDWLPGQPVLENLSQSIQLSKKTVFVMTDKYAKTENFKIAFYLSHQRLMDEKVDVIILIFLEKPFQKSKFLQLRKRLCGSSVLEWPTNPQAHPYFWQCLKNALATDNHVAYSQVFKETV
As to the kind of experiment: Human TLR7 agonist activity reporter assay (HEK-Blue TLR7 cells, SEAP reporter). The assay is classed as cell-based. The conditions noted are these: human TLR7 (hTLR7) reporter assay, SEAP readout after 18 h, average where assay repeated, read-out: TLR7 Agonism EC50. The procedure: Human TLR7 Agonist Activity Assay
This procedure describes a method for assaying human TLR7 (hTLR7) agonist activity of the compounds disclosed in this specification.
HEK-Blue™ TLR7 cells were added to each well of a 384-well tissue-culture plate (15,000 cells per well) and incubated 16-18 h at 37° C., 5% CO2. Compounds (100 nl) were dispensed into wells containing the HEK-Blue™ TLR cells and the treated cells were incubated at 37° C., 5% CO2. After 18 h treatment ten microliters of freshly-prepared Quanti-Blue™ reagent (Invivogen) was added to each well, incubated for 30 min (37° C., 5% CO2) and SEAP levels measured using an Envision plate reader (OD=620 nm).
A general note: Reporter assays use an easily measured gene product as a stand-in for the process of interest.

In another assay the test system is CD69. The assay is described as follows: Induction of CD69 in human whole blood. The assay is classed as cell-based. The conditions noted are these: 17 hrs incubation, CD69 surface staining, 100% set to 1 uM of resiquimod, average where assay repeated, read-out: hWB CD69 EC50. The procedure: Induction of Type I Interferon Genes (MX-1) and CD69 in Human Blood
The induction of Type I interferon (IFN) MX-1 genes and the B-cell activation marker CD69 are downstream events that occur upon activation of the TLR7 pathway. The following is a human whole blood assay that measures their induction in response to a TLR7 agonist.
Heparinized human whole blood was harvested from human subjects and treated with test TLR7 agonist compounds at 1 mM. The blood was diluted with RPMI 1640 media and Echo was used to predot 10 nL per well giving a final concentration of 1 uM (10 nL in 10 uL of blood). After mixing on a shaker for 30 sec, the plates were covered and placed in a 37° C. chamber for o/n=17 hrs. Fixing/lysis buffer was prepared (5×→1× in H2O, warm at 37° C.; Cat #BD 558049) and kept the perm buffer (on ice) for later use.
For surface markers staining (CD69): prepared surface Abs: 0.045 ul hCD14-FITC (ThermoFisher Cat #MHCD1401)+0.6 ul hCD19-ef450 (ThermoFisher Cat #48-0198-42)+1.5 ul hCD69-PE (cat #BD555531)+0.855 ul FACS buffer. Added 3 ul/well, spin 1000 rpm for 1 min and mixed on shaker for 30 sec, put on ice for 30 min. Stop stimulation after 30 minutes with 70 uL of prewarmed 1× fix/lysis buffer and use Feliex mate to resuspend (15 times, change tips for each plate) and incubate at 37 C for 10 minutes.
Centrifuge at 2000 rpm for 5 minutes aspirate with HCS plate washer, mix on shaker for 30 sec and then wash with 70 uL in dPBS and pelleted 2×s (2000 rpm for 5 min) and 50 ul wash in FACS buffer pelleted 1×s (2000 rpm for 5 min). Mix on shaker for 30 sec. For Intracellular markers staining (MX-1): Add 50 ul of BD Perm buffer III and mix on shaker for 30 sec. Incubate on ice for 30 minutes (in the dark). Wash with 50 uL of FACS buffer 2× (spin @2300 rpm×5 min after perm) followed by mixing on shaker for 30 sec. Resuspended in 20 ul of FACS buffer containing MX1 antibody ( )(4812)-Alexa 647: Novus Biologicals #NBP2-43704AF647) 20 ul FACS bf+0.8 ul hIgG+0.04 ul MX-1. Spin 1000 rpm for 1 min, mix on shaker for 30 se and the samples were incubated at RT in the dark for 45 minutes followed by washing 2×FACS buffer (spin @2300 rpm×5 min after perm). Resuspend 20 ul (35 uL total per well) of FACS buffer and cover with foil and place in 4° C. to read the following day. Plates were read on iQuePlus. The results were loaded into toolset and […] curves are generated in curve master. The y-axis 100% is set to 1 uM of resiquimod.

For orientation: EC50 means the concentration at which the effect is half-maximal. In the case of `CCC[C@@H](CCO)Nc1nc(N)nc2cnn(Cc3ccc(C4CCNCC4)c4cccnc34)c12` [Compound 141, (3S)-3-[(5-amino-1-{[5-(piperidin-4-yl)quinolin-8-yl]methyl}-1H-pyrazolo[4,3-d]pyrimidin-7-yl)amino]hexan-1-ol], the EC50 stood at 21.7 nM on human TLR7 and 0.3 nM in the assay on CD69.
The like results for `CCC[C@@H](CCO)Nc1nc(N)nc2cnn(Cc3ccc(C(=O)N4CCN(C)CC4)c4cccnc34)c12` [Compound 112, (3S)-3-[(5-amino-1-{[5-(4-methylpiperazine-1-carbonyl)quinolin-8-yl]methyl}-1H-pyrazolo[4,3-d]pyrimidin-7-yl)amino]hexan-1-ol] were, in that order, 4.9 nM and 5.1 nM.
In the same order, the values of `CCC[C@@H](CCO)Nc1nc(N)nc2cnn(Cc3ccc(C(=O)N4C[C@H]5CN(C)C[C@H]5C4)c4cccnc34)c12` [Compound 125, (3S)-3-{[1-([5-[(3aR,6aS)-5-methyl-octahydropyrrolo[3,4-c]pyrrole-2-carbonyl]quinolin-8-yl}methyl)-5-amino-1H-pyrazolo[4,3-d]pyrimidin-7-yl]amino}hexan-1-ol] are 33.7 nM and 83.3 nM.
In the same order, the values of `CN1CCC(NC(=O)c2ccc(Cn3ncc4nc(N)nc(NCC5CC6(CC6)C5)c43)c3ncccc23)CC1` [Compound 116, 8-({5-amino-7-[({spiro[2.3]hexan-5-yl}methyl)amino]-1H-pyrazolo[4,3-d]pyrimidin-1-yl}methyl)-N-(1-methylpiperidin-4-yl)quinoline-5-carboxamide] are 280 nM and 291 nM.
As for `CCC[C@@H](CCO)Nc1nc(N)nc2cnn(Cc3ccc(CN4C[C@H]5CN(C)C[C@H]5C4)c4cccnc34)c12` [Compound 140, (3S)-3-({1-[(5-{[(3aR,6aS)-5-methyl-octahydropyrrolo[3,4-c]pyrrol-2-yl]methyl}quinolin-8-yl)methyl]-5-amino-1H-pyrazolo[4,3-d]pyrimidin-7-yl}amino)hexan-1-ol], the EC50 on human TLR7 was determined as 8.3 nM; with CD69, 21.1 nM.
For the molecule `CCC[C@@H](CCO)Nc1nc(N)nc2cnn(Cc3ccc(C(=O)NCCCCO)c4cccnc34)c12` [Compound 136, 8-[(5-amino-7-{[(3S)-1-hydroxyhexan-3-yl]amino}-1H-pyrazolo[4,3-d]pyrimidin-1-yl)methyl]-N-(4-hydroxybutyl)quinoline-5-carboxamide], the values for the EC50 on human TLR7 and in the assay on CD69 were 231 nM and 418 nM, respectively.
The like results for `CCCCNc1nc(N)nc2cnn(Cc3ccc(CN4CCOCC4)c4cccnc34)c12` [Compound 107, N7-butyl-1-({5-[(morpholin-4-yl)methyl]quinolin-8-yl}methyl)-1H-pyrazolo[4,3-d]pyrimidine-5,7-diamine] were, in that order, 156 nM and 321 nM.
In the same order, the values of `Cc1cc(CNc2nc(N)nc3cnn(Cc4ccc(C(=O)N5CC6(CN(C)C6)C5)c5cccnc45)c23)no1` [Compound 138, N7-[(5-methyl-1,2-oxazol-3-yl)methyl]-1-[(5-{6-methyl-2,6-diazaspiro[3.3]heptane-2-carbonyl}quinolin-8-yl)methyl]-1H-pyrazolo[4,3-d]pyrimidine-5,7-diamine] are 275 nM and 41.7 nM.
In the same order, the values of `CCC[C@@H](CCO)Nc1nc(N)nc2cnn(Cc3ccc(CNC4CCC4)c4cccnc34)c12` [Compound 103, (3S)-3-{[5-amino-1-({5-[(cyclobutylamino)methyl]quinolin-8-yl}methyl)-1H-pyrazolo[4,3-d]pyrimidin-7-yl]amino}hexan-1-ol] are 13.8 nM and 10.6 nM.
As for `CCC[C@@H](CCO)Nc1nc(N)nc2cnn(Cc3ccc(C(=O)N4CCNCC4)c4cccnc34)c12` [Compound 137, (3S)-3-[(5-amino-1-{[5-(piperazine-1-carbonyl)quinolin-8-yl]methyl}-1H-pyrazolo[4,3-d]pyrimidin-7-yl)amino]hexan-1-ol], the EC50 on human TLR7 was 60.9 nM; with CD69 it was 20.4 nM.
In the case of `CCC[C@@H](CCO)Nc1nc(N)nc2cnn(Cc3ccc(C(=O)N4CC(CCOC)C4)c4cccnc34)c12` [Compound 128, (3S)-3-{[5-amino-1-({5-[3-(2-methoxyethyl)azetidine-1-carbonyl]quinolin-8-yl}methyl)-1H-pyrazolo[4,3-d]pyrimidin-7-yl]amino}hexan-1-ol], the EC50 on human TLR7 was 54.6 nM; with CD69, 102 nM.
The like results for `CCC[C@@H](CCO)Nc1nc(N)nc2cnn(Cc3ccc(C(=O)N4CCOCC4)c4cccnc34)c12` [Compound 113, (3S)-3-[(5-amino-1-{[5-(morpholine-4-carbonyl)quinolin-8-yl]methyl}-1H-pyrazolo[4,3-d]pyrimidin-7-yl)amino]hexan-1-ol] were, in that order, 186 nM and 132 nM.
